The term IC50 denotes the concentration that inhibits the measured activity by half. Higher therefore signals weaker potency.

The source of these data is US9695195B2, “5-HT3 receptor antagonists” (Takeda Pharmaceutical Company Limited, priority 2012, dated 2017).

Structures can show the parent of a compound that is named as a salt.

In the test the target is 5HT3a receptor (Homo sapiens (Human), UniProt P46098). Briefly: Inhibition of Ca flux activity of 5HT3 in vitro assay. It counts as cell-based. Conditions: 5HT3a expressed in HEK-293T cells; 5HT 216 nM; approximate values. The method, then: The 5HT3 antagonist activity of the compounds of the invention was determined by measuring the ability of the compounds to inhibit the calcium flux activity of […] receptor expressed in HEK-293T cells. HEK-293T cells were transfected with the 5HT3a expression construct using Xtreme Gene 9 (Roche) in 150 mm tissue culture treated plates and incubated for 24 hours at 37° C. Cells were then split and plated at a density of 60K cells/well in poly-lysine coated, black 96-well plates with clear bottoms (BD BioSciences) and incubated overnight at 37° C. Growth media was removed and cells loaded with 200 uL calcium indicator dye in HBSS containing 20 mM HEPES (Calcium 5 Assay kit, Molecular Devices) and incubated at 37° C. for 1 hour. While cells were incubating, the 10× antagonist and agonist/antagonist addition plates were made. For 10× antagonist plate: half log serial dilutions (final concentrations range from 10^−7 through 10^−10 with the bottom well a negative, no ligand control) were made from test compounds in DMSO at a 1000× concentration and then diluted to 10× in HBSS/20 mM HEPES. For addition plate: 5HT was diluted to 100× in HBSS/20 mM HEPES (final concentration in the assay-216 nM) and 15 uL was added to each well of the addition plate, 15 uL of 10× compound was also added to the addition plate, and finally 120 uL of HBSS/20 mM HEPES (for a total of 150 uL). Cells were then removed from the incubator and equilibrated to room temperature for 10 minutes, then 22.5 uL of 10× test compounds were added in triplicate to the plates and incubated at room temperature for 10 minutes (Tropisetron was used as a positive control in every assay). Test plate and addition plate were loaded into the FlexStation III (Molecular Devices), and using the fluidics, 22.5 uL compound additions were made (at t=˜17 seconds), and fluorescence was measured for 90 seconds, reading every 2.2 seconds. Data sets were analyzed as max minus min using Software Max Pro (Molecular Devices). IC50 curves were generated using non-linear regression in GraphPad Prism.
5HT3a receptor, sequence (P46098 24-478): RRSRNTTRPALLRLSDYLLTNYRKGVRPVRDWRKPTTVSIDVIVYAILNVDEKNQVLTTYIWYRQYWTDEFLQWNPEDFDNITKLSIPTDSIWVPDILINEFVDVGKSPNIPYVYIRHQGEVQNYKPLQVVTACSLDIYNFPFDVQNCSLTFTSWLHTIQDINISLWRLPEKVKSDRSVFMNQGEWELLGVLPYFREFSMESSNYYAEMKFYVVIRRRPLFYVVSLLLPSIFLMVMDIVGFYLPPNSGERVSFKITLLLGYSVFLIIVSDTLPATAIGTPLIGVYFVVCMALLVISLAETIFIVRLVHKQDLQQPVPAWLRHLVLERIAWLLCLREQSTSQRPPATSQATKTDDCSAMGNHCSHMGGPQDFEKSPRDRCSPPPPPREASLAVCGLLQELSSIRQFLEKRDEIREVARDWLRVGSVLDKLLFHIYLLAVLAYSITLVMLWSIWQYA

As to `CN1[C@@H]2CC[C@H]1CC(OC(=O)c1cn(CC(F)(F)F)c3ccc(F)cc13)C2` (stereo partly drawn) [Compound 1, (1R,3R,5S)-8-methyl-8-aza-bicyclo[3.2.1]octan-3-yl 5-fluoro-1-(2,2,2-trifluoro-ethyl)-1H-indole-3-carboxylate; 2,2,2-trifluoroacetate], inhibition was half-maximal at 2.13 nM (IC50). `CN1[C@@H]2CCC[C@H]1CC(OC(=O)c1nn(S(C)(=O)=O)c3ccccc13)C2` (stereo partly drawn) [Compound 4, (1R,3R,5S)-9-methyl-9-aza-bicyclo[3.3.1]nonan-3-yl 1-(methylsulfonyl)-1H-indazole-3-carboxylate, 2,2,2-trifluoroacetate] had an IC50 of 1.4 nM.

For the compound `O=C(NC1CC2COCC(C1)N2)c1cn(CC(F)(F)F)c2ccc(F)cc12` [Compound 6, N-((1R,5S,7S)-3-oxa-9-aza-bicyclo[3.3.1]nonan-7-yl)-5-fluoro-1-(2,2,2-trifluoro-ethyl)-1H-indole-3-carboxamide, 2,2,2-trifluoroacetate], the IC50 is 2.33 nM.

In turn, `CN1[C@@H]2CC[C@H]1C[C@@H](OC(=O)c1c(Cl)n(S(C)(=O)=O)c3ccccc13)C2` [Compound 13, (1R,3R,5S)-8-methyl-8-aza-bicyclo[3.2.1]octan-3-yl 2-chloro-1-(methylsulfonyl)-1H-indole-3-carboxylate, 2,2,2-trifluoroacetate] showed an IC50 of 0.93 nM.

In turn, `O=C(OC1CC2CCC(C1)N2)c1cn(CC(F)(F)F)c2ccccc12` [Compound 14, (1R,3R,5S)-8-azabicyclo[3.2.1] octan-3-yl 1-(2,2,2-trifluoroethyl)-1H-indole-3-carboxylate, 2,2,2-trifluoroacetate] registered an IC50 of 3.71 nM. `Cc1c(C(=O)OC2C[C@H]3CC[C@@H](C2)N3C)c2ccccc2n1CCF` (stereo partly drawn) [Compound 15, (1R,3R,5S)-8-methyl-8-aza-bicyclo[3.2.1]octan-3-yl 1-(2-fluoroethyl)-2-methyl-1H-indole-3-carboxylate, 2,2,2-trifluoroacetate] had an IC50 of 0.53 nM. The compound `CN1[C@@H]2CCC[C@H]1CC(OC(=O)c1nn(CCF)c3ccccc13)C2` (stereo partly drawn) [Compound 16, (1R,3R,5S)-9-methyl-9-aza-bicyclo[3.3.1]nonan-3-yl 1-(2-fluoroethyl)-1H-indazole-3-carboxylate, 2,2,2-trifluoro-acetate; 2,2,2-trifluoroacetate] came in with an IC50 of 3.25 nM.

`CN1[C@@H]2CC[C@H]1CC(OC(=O)c1nn(CC(F)(F)F)c3ccccc13)C2` (stereo partly drawn) [Compound 17, (1R,3R,5S)-8-methyl-8-aza-bicyclo[3.2.1]octan-3-yl 1-(2,2,2-trifluoroethyl)-1H-indazole-3-carboxylate, 2,2,2-trifluoroacetate] came in with a half-inhibitory concentration (IC50) of 4.39 nM. In turn, `CN1[C@@H]2CC[C@H]1CC(NC(=O)c1cn(S(C)(=O)=O)c3ccc(F)cc13)C2` (stereo partly drawn) [Compound 18, 5-fluoro-N-((1R,3R,5S)-8-methyl-8-azabicyclo[3.2.1]octan-3-yl)-1-(methylsulfonyl)-1H-indole-3-carboxamide, 2,2,2-trifluoroacetate] had an IC50 of 4.06 nM. For `CS(=O)(=O)n1cc(C(=O)O[C@H]2C[C@H]3COC[C@@H](C2)N3)c2cc(F)ccc21` [Compound 19, (1R,5S,7S)-3-oxa-9-aza-bicyclo[3.3.1]nonan-7-yl 5-fluoro-1-(methylsulfonyl)-1H-indole-3-carboxylate, 2,2,2-trifluoroacetate] the value was 7.72 nM; for `O=C(OC1C[C@H]2COC[C@@H](C1)N2)c1cn(-c2ncccn2)c2ccccc12` (stereo partly drawn) [Compound 25, (1R,5S,7S)-3-oxa-9-aza-bicyclo[3.3.1]nonan-7-yl 1-(pyrimidin-2-yl)-1H-indole-3-carboxylate, 2,2,2-trifluoro-acetate], 3.88 nM.

The compound `CN1[C@@H]2CC[C@H]1CC(OC(=O)c1cn(S(C)(=O)=O)c3ccccc13)C2` (stereo partly drawn) [Compound 26, (1R,3R,5S)-8-methyl-8-aza-bicyclo[3.2.1]octan-3-yl 1-(methylsulfonyl)-1H-indole-3-carboxylate, 2,2,2-trifluoro-acetate] showed an IC50 of 0.54 nM. In the case of `CN1[C@@H]2CC[C@H]1C[C@H](OC(=O)c1cn(CC(F)F)c3ccc(F)cc13)C2` [Compound 27, (1R,3R,5S)-8-methyl-8-aza-bicyclo[3.2.1]octan-3-yl 1-(2,2-difluoroethyl)-5-fluoro-1H-indole-3-carboxylate, 2,2,2-trifluoroacetate] it was 0.89 nM. Take `CN1[C@@H]2CC[C@H]1C[C@H](OC(=O)c1c3n(c4ccccc14)CCO3)C2` [Compound 28, (1R,3R,5S)-8-methyl-8-aza-bicyclo[3.2.1]octan-3-yl 2,3-dihydrooxazolo[3.2-a] indole-9-carboxylate, 2,2,2-trifluoroacetate]: the IC50 amounted to 1.08 nM. Turning to `CN1[C@@H]2CCC[C@H]1CC(OC(=O)c1c(Cl)n(CCF)c3ccccc13)C2` (stereo partly drawn) [Compound 30, (1R,3R,5S)-9-methyl-9-aza-bicyclo[3.3.1]nonan-3-yl 2-chloro-1-(2-fluoroethyl)-1H-indole-3-carboxylate, 2,2,2-trifluoroacetate], the midpoint of inhibition, the IC50, lay at 0.2 nM.

Turning to `CN1[C@@H]2COC[C@H]1C[C@@H](OC(=O)c1cn(CC(F)(F)F)c3ccc(F)cc13)C2` [Compound 32, (1R,5S,7S)-9-methyl-3-oxa-9-azabicyclo[3.3.1]nonan-7-yl 5-fluoro-1-(2,2,2-trifluoroethyl)-1H-indole-3-carboxylate, 2,2,2-trifluoroacetate], the IC50 stood at 1.38 nM. As for `O=C(OC1C[C@H]2COC[C@@H](C1)N2CCF)c1cn(CC(F)F)c2ccc(F)cc12` (stereo partly drawn) [Compound 33, (1R,5S,7S)-9-(2-fluoroethyl)-3-oxa-9-azabicyclo[3.3.1] nonan-7-yl 1-(2,2-difluoroethyl)-5-fluoro-1H-indole-3-carboxylate, 2,2,2-trifluoroacetate], inhibition was half-maximal at 14.4 nM (IC50). With `CN1[C@@H]2CCC[C@H]1CC(OC(=O)c1cn(S(C)(=O)=O)c3ccc(F)cc13)C2` (stereo partly drawn) [Compound 34, (1R,3R,5S)-9-methyl-9-aza-bicyclo[3.3.1]nonan-3-yl 5-fluoro-1-(methylsulfonyl)-1H-indole-3-carboxylate, 2,2,2-trifluoroacetate], half-maximal inhibition (IC50) required 0.74 nM.

For the compound `CN1[C@@H]2COC[C@H]1C[C@@H](OC(=O)c1cn(-c3ccc(F)nn3)c3ccccc13)C2` [Compound 137, (1R,5S,7s)-9-methyl-3-oxa-9-azabicyclo[3.3.1]nonan-7-yl 1-(6-fluoropyridazin-3-yl)-1H-indole-3-carboxylate], the IC50 was determined as 0.681 nM. On to `O=C(OC1CC2COCC(C1)N2)c1cn(-c2ccsn2)c2ccccc12` [Compound 145, (1R,5S,7s)-3-oxa-9-aza-bicyclo[3.3.1]nonan-7-yl 1-(iso-thiazol-3-yl)-1H-indole-3-carboxylate, 2,2,2-trifluoroacetic acid salt], for which it took 2.71 nM to reach half-maximal inhibition (IC50).

Take `O=C(OC1CC2COCC(C1)N2)c1cn(-c2ccns2)c2ccccc12` [Compound 155, (1R,5S,7s)-3-oxa-9-aza-bicyclo[3.3.1]nonan-7-yl 1-(iso-thiazol-5-yl)-1H-indole-3-carboxylate, 2,2,2-trifluoroacetic acid salt]: the IC50 was determined as 1.26 nM. For `CN1[C@@H]2COC[C@H]1CC(OC(=O)c1cn(-c3cnccn3)c3ccccc13)C2` (stereo partly drawn) [Compound 181, (1R,5S,7S)-9-methyl-3-oxa-9-azabicyclo[3.3.1]nonan-7-yl 1-(pyrazin-2-yl)-1H-indole-3-carboxylate], the midpoint of inhibition, the IC50, lay at 1.1 nM. For the compound `CN1[C@@H]2COC[C@H]1CC(OC(=O)c1cn(-c3ccsn3)c3ccccc13)C2` (stereo partly drawn) [Compound 182, (1R,5S,7S)-9-methyl-3-oxa-9-azabicyclo[3.3.1]nonan-7-yl 1-(isothiazol-3-yl)-1H-indole-3-carboxylate], inhibition was half-maximal at 1.62 nM (IC50). The compound `CN1[C@@H]2COC[C@H]1C[C@@H](OC(=O)c1cn(-c3cncs3)c3ccccc13)C2` [Compound 183, (1R,5S,7S)-9-methyl-3-oxa-9-azabicyclo[3.3.1]nonan-7-yl 1-(thiazol-5-yl)-1H-indole-3-carboxylate] returned an IC50 of 1.27 nM. In turn, `CN1[C@@H]2COC[C@H]1CC(OC(=O)c1cn(-c3cnc(F)cn3)c3ccccc13)C2` (stereo partly drawn) [Compound 184, (1R,5S,7S)-9-methyl-3-oxa-9-aza-bicyclo[3.3.1]nonan-7-yl 1-(5-fluoropyrazin-2-yl)-1H-indole-3-carboxylate] showed an IC50 of 1.25 nM.

For `N#CCn1cc(C(=O)OC2C[C@H]3COC[C@@H](C2)N3)c2ccccc21` (stereo partly drawn) [Compound 187, (1R,5S,7S)-3-oxa-9-aza-bicyclo[3.3.1]nonan-7-yl 1-(cyanomethyl)-1H-indole-3-carboxylate], the IC50 amounted to 1.18 nM. Consider `CN1[C@@H]2COC[C@H]1CC(OC(=O)c1cn(-c3ncccn3)c3ccccc13)C2` (stereo partly drawn) [Compound 188, (1R,5S,7S)-9-methyl-3-oxa-9-azabicyclo[3.3.1]nonan-7-yl 1-(pyrimidin-2-yl)-1H-indole-3-carboxylate], for which it took 1.75 nM to reach half-maximal inhibition (IC50).
